# From patent US12514833B2, “Combination of ibuprofen and tramadol for relieving pain” (FARMALÍDER, S.A., priority 2019, dated 2026)
# Where a name gives a salt, the structure may show the parent alone.
# Assays:
# Assay type in all cases: in vivo, human
# [1] = tested on: patients with moderate to intense somatic pain after dental surgery; test: Example 2: phase III trial, oral ibuprofen arginate/tramadol (400/37.5), pain after dental surgery (VAS, rescue medication, safety); conditions: 4 doses every 6 hours, 24 hours follow-up, tramadol HCl 50 mg; for Number of rescued patients: N = 95/97/98, ibuprofen arginate 400 mg; for % of rescued patients: ibuprofen arginate 400 mg
# Protocol: A phase III, multicentre, randomized, double-blind, placebo-controlled study was performed to assess the compared efficacy and safety of the combination of ibuprofen arginate/tramadol HCl (400 mg ibuprofen/37.5 mg tramadol HCl) administered by the oral route, compared to oral tramadol (50 mg), oral ibuprofen arginate (400 mg ibuprofen) and placebo for treating adult patients (aged 18 or more) suffering from moderate to intense somatic pain after dental surgery.
# (§1) Pain intensity was assessed using the Visual Analogue Scale (VAS).
# The patients selected for the study were adults suffering from moderate to severe pain (VAS 0-100≥45 mm) after surgical extraction of at least two third molars, if only two third molars were extracted, they should be ipsilateral and at least one of them impacted, involving bone removal.
# The patients were divided in four groups, receiving the following medication: • Group 1: ibuprofen arginate/tramadol HCl 400 mg/37.5 mg (95 patients) • Group 2: ibuprofen arginate 400 mg (97 patients) • Group 3: tramadol HCl 50 mg (98 patients) • Group 4: placebo (93 patients)
# (§2) The amount of ibuprofen arginate (400 mg) is expressed as the amount of ibuprofen in acidic form.
# The combination of ibuprofen arginate/tramadol HCl administered to the patients of Group 1 was in the form of a granulate for oral administration (as described in Example 4). Each dosage comprised 340 mg of L-arginine.
# The ibuprofen arginate 400 mg administered to the patients of Group 2 corresponded to the commercial medicine Espidifen® 400 mg, each dose comprising 400 mg of ibuprofen, given as 770 mg of ibuprofen arginate.
# The 50 mg dose of tramadol HCl 50 mg of Group 3 was administered using the commercial medicine Adolonta® 100 mg/ml oral solution.
# After the dental surgery, the pain intensity of each patient was evaluated according to the VAS test until reaching the value ≥45 mm. At that moment, the patient was assigned to one of the four groups in a randomized way and the corresponding medication was administered. A new VAS test was performed after the administration of the first dose of the medication, which was taken as the basal value. 4 doses of each medication were administered, with an interval of 6 hours between doses.
# After the administration of each medication, the evolution of patients was followed until 24 hours after the first dosage, by assessing the change in pain intensity.
# Patients were allowed to ask for rescue medication during that period, starting 30 minutes after the administration of the first dosage. […]
# Pain intensity was assessed for each patient at the following time points: 0 (basal), 1, 2, 3, 4, 5, 6, 8, 12 and 24 hours after the administration of the medication. For each of the four groups, the average VAS value was calculated.
# [2] = tested on: patients with visceral moderate to intense pain after non-oncologic abdominal hysterectomy; test: Example 3: phase III trial, oral ibuprofen arginate/tramadol HCl (400/37.5), pain after hysterectomy (VAS, rescue medication, adverse effects); conditions: tramadol HCl 50 mg; for Total rescued patients (number) / Total rescued patients (%): 8 doses every 6 hours, 48 hours; for Total rescued patients (number): N = 91/94/98, ibuprofen arginate 400 mg; for Total rescued patients (%) / Rescued patients at 24 h (%) / Rescued patients at 24 h (number) / Average time until rescue: ibuprofen arginate 400 mg; for Rescued patients at 24 h (%) / Rescued patients at 24 h (number): first 24 h of the study
# Protocol: A phase III, multicentre, randomized, double-blind, placebo-controlled, study was performed to assess the compared efficacy and safety of the combination of ibuprofen arginate/tramadol HCl (400 mg ibuprofen/37.5 mg tramadol HCl) administered by the oral route, compared to oral tramadol (50 mg), oral ibuprofen arginate (400 mg ibuprofen) and placebo for treating adult patients (aged 18 or more) suffering from visceral moderate to intense pain after non-oncologic abdominal hysterectomy.
# as §1
# The patients selected for the study were adults suffering from moderate to severe pain (VAS 0-100≥40 mm) after total or partial abdominal hysterectomy for benign, non-oncologic disease, which required hospitalization during at least 48 hours.
# The patients were divided in four groups, receiving the following medication: • Group 1: ibuprofen arginate/tramadol HCl 400 mg/37.5 mg (91 patients) • Group 2: ibuprofen arginate 400 mg (94 patients) • Group 3: tramadol HCl 50 mg (98 patients) • Group 4: placebo (93 patients)
# as §2
# The combination of ibuprofen arginate/tramadol HCl administered to the patients of Group 1 was in the form of granulate for oral administration (as described in Example 4 below). Each dosage comprised 340 mg of L-arginine.
# Patients of Group 2 received the commercial medicine Espidifen® 400 mg, each dose comprising 400 mg of ibuprofen, as 770 mg of ibuprofen arginate.
# Patients of Group 3 received the commercial medicine Adolonta® 100 mg/ml oral solution, and a dose of 50 mg of tramadol HCl was administered.
# After the surgery, the pain intensity of each patient was evaluated according to the VAS test until reaching the value ≥40 mm. At that moment, each patient was recruited and assigned to one of the four groups in a randomized way and the corresponding medication was administered. A new VAS test was performed after the administration of the first dose of the medication, which was taken as the basal value. Subsequently, 7 more doses of the assigned medication were administered, with an interval of 6 hours between doses, so a total of 8 doses were administered to each patient.
# After the administration of the first dosage of each medication, the evolution of the patients was followed until 48 hours after the first dosage, by assessing the change in pain intensity.
# After 30 minutes from the first dosage, patients were allowed to request a rescue medication, if needed. Rescue medication was 1 g paracetamol given by the oral route. If a second rescue medication was necessary, a capsule of 575 mg metamizole was administered.
# Pain intensity was assessed for each patient at the following time points: 0 (basal), 1, 2, 4, 6, 8, 10, 12, 18, 24, 30, 36, 42 and 48 hours after the administration of the first dosage of the medication. For each of the four groups, the average VAS value was calculated at each time point.
# [3] = tested on: patients with moderate to intense pain after dental surgery; test: Example 1: phase III pilot trial, intravenous ibuprofen arginate combined with tramadol, pain after dental surgery (VAS, rescue medication, adverse effects); conditions: for VAS (average value): single iv infusion
# Protocol: A phase III, multicentre, randomized, double-blind, placebo-controlled, pilot study was performed to assess the compared efficacy and safety of intravenous ibuprofen arginate (400 mg) combined with two different doses of tramadol hydrochloride (37.5 and 75 mg) and of intravenous tramadol 100 mg in patients suffering from moderate to intense pain after dental surgery.
# as §1
# The patients were divided in four groups, receiving the following medication: • Group 1: ibuprofen arginate/tramadol HCl 400 mg/37.5 mg (16 patients) • Group 2: ibuprofen arginate/tramadol HCl 400 mg/75 mg (18 patients) • Group 3: tramadol HCl 100 mg (18 patients) • Group 4: placebo (saline solution) (17 patients)
# The amount of ibuprofen arginate (400 mg) is expressed as the amount of ibuprofen in acidic form. The amount of L-arginine in each composition in groups 1 and 2 was 356 mg, which corresponds to a molar ratio ibuprofen:arginine 1:1.054.
# The compositions of groups 1 to 3 were aqueous solutions of the drugs prepared with water for injection. Other excipients included in the compositions were sodium chloride, used as tonicity agent, to reach an osmolality of 310-360 mOsm/Kg, and hydrochloric acid and sodium hydroxide to adjust the pH of the solution to a value in the range 6.8-7.8. The volume of the composition in all groups was 100 ml, which was infused intravenously during 30 minutes, in a single administration. The preparation of the composition used for Group 1 is analogous as disclosed in Example 5. The preparation of the composition used for Group 2 was equivalent, but using 75 mg of tramadol HCl instead of 37.5 mg.
# Thus, after the dental surgery, the pain intensity of each patient was evaluated according to the VAS test until reaching the value ≥55 mm. At that moment, the patient was assigned to one of the four groups in a randomized way and the corresponding medication was administered not later than 15 minutes after randomization and not later than 25 minutes after VAS test. A new VAS test was performed at the beginning of the infusion, which was taken as the basal value.
# After the administration of each medication, the evolution of patients was followed during 4 hours, by assessing the change in pain intensity.
# Patients were allowed to ask for rescue medication during that period, starting 30 minutes after the administration of each treatment. Rescue medication was 1 g paracetamol given by the oral route. If a second rescue medication was necessary, a capsule of 575 mg metamizole was administered. If rescue medication was administered before 4 hours after the administration of the study medication, the patient left the study (but remained still included for assessing safety parameters and was under monitoring for further 4 hours).
# Pain intensity was assessed for each patient at the following time points: 0 (basal), 15, 30, 45, 60, 75, 90, 105, 120, 150, 180, 210, and 240 minutes after the administration of the medication. For each of the four groups, the average VAS value was calculated.
smiles,measurement,setting,value
"COc1cccc([C@]2(O)CCCC[C@H]2CN(C)C)c1 (racemic) [tramadol HCl, (±)-cis-2-[(dimethylamino)methyl]-1-(3-methoxyphenyl) cyclohexanol]",Number of rescued patients,[1],38
same,% of rescued patients,[1],38.8%
same,Total rescued patients (number),[2],31
same,Total rescued patients (%),[2],31.6%
same,Rescued patients at 24 h (%),[2],28.6%
same,Rescued patients at 24 h (number),[2],28
same,Average time until rescue,[2],8.97 h
same,number of adverse effects reported relative to Group 1 (ibuprofen/tramadol),[2],twice
same,Number of rescued patients,"[3]; iv, 4 hours follow-up, N = 16/18/18, tramadol HCl alone 100 mg",9
same,% of rescued patients,"[3]; iv, 4 hours follow-up, tramadol HCl alone 100 mg",50.0%
same,Number of patients reporting AE,"[3]; iv, N = 16/18/18, tramadol HCl alone 100 mg",5
same,% of patients reporting AE,"[3]; iv, tramadol HCl alone 100 mg",27.8%
same,Average time until rescue,"[3]; iv, tramadol HCl alone 100 mg",70 min
same,Number of AE,"[3]; iv, tramadol HCl alone 100 mg",9
same,VAS (average value),"[3]; 15 min after administration, tramadol HCl alone 100 mg",48.55 mm
same,VAS (average value),"[3]; 30 min, tramadol HCl alone 100 mg",45.28 mm
same,VAS (average value),"[3]; 45 min, tramadol HCl alone 100 mg",47.11 mm
same,VAS (average value),"[3]; 60 min, tramadol HCl alone 100 mg",51.67 mm
same,VAS (average value),"[3]; 75 min, tramadol HCl alone 100 mg",54.72 mm
same,VAS (average value),"[3]; 90 min, tramadol HCl alone 100 mg",54.44 mm
same,VAS (average value),"[3]; 105 min, tramadol HCl alone 100 mg",53.67 mm
same,VAS (average value),"[3]; 120 min, tramadol HCl alone 100 mg",51.55 mm
same,VAS (average value),"[3]; 150 min, tramadol HCl alone 100 mg",49.39 mm
same,VAS (average value),"[3]; 180 min, tramadol HCl alone 100 mg",47.94 mm
same,VAS (average value),"[3]; 210 min, tramadol HCl alone 100 mg",46.72 mm
same,VAS (average value),"[3]; 240 min, tramadol HCl alone 100 mg",44.50 mm
same,VAS (average value),"[3]; time 0 min (basal), tramadol HCl alone 100 mg",72.83 mm
"CC(C)Cc1ccc(C(C)C(=O)O)cc1 (racemic) [ibuprofen arginate, (RS)-2-(4-(2-methylpropyl)phenyl)propanoic acid]",Number of rescued patients,[1],6
same,% of rescued patients,[1],6.2%
same,Total rescued patients (number),[2],23
same,Total rescued patients (%),[2],24.5%
same,Rescued patients at 24 h (%),[2],22.3%
same,Rescued patients at 24 h (number),[2],21
same,Average time until rescue,[2],8.43 h
